Molecules are shown by their SMILES.

The record followed here is patent US20220146526A1, “METHOD FOR EVALUATING SAMPLE, ANALYSIS METHOD, METHOD FOR DETECTING DEGRADED SAMPLE, MARKER FOR DETECTING DEGRADED BLOOD PLASMA SAMPLE, AND MARKER FOR DETECTING DEGRADED SERUM SAMPLE” (SHIMADZU CORPORATION, priority 2019, published 2022).

The first data set is described as follows: LC/MS of blood plasma sample: time from blood collection to centrifugation (Table D). Format: physicochemical, human. The note with it: detection intensity relative to 1 at 15 minutes, blood collection to centrifugation, after 4 hours. Put shortly: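 Healthy-subject blood (5 mL, EDTA) cooled and held at 4 °C before centrifugation (4 °C, 3000 rpm, 15 min), with plasma then frozen. LC/MS on Discovery HS F5-3 column at 40 °C, 0.1% formic acid water/acetonitrile, 0.25 mL/min, electrospray, MRM; intensities relative to 15 min collection-to-centrifugation set as 1.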
As to `NCCc1c[nH]c2ccc(O)cc12` [Serotonin], the “Rate of increase or decrease” value is on record as 2.95.
Turning to `N[C@@H](CS)C(=O)O` [Cysteine], the “Rate of increase or decrease” value amounted to 1.33.

Still in this data set, the particulars now being: detection intensity relative to 1 at 15 minutes, blood collection to centrifugation, after 6 hours.
With `N[C@@H](CC(=O)O)C(=O)O` [Aspartic acid], the “Rate of increase or decrease” value came to 1.46.
The same measure, in the same setting: in the case of `Nc1ncnc2nc[nH]c12` [Adenine] it was 0.63.

Staying with this data set, now noted: detection intensity, blood collection to centrifugation, after 4 hours vs 15 minutes.
In the case of `NCCc1c[nH]c2ccc(O)cc12` [Serotonin], the Increase or decrease entry is given as “Increase”.
Same read-out and setting: next, `N[C@@H](CS)C(=O)O` [Cysteine]: “Increase”.

The same data set, now with this note: detection intensity, blood collection to centrifugation, after 6 hours vs 15 minutes.
Regarding `N[C@@H](CC(=O)O)C(=O)O` [Aspartic acid], the Increase or decrease entry is reported as “Increase”.
On the same count and under the same terms, next, `Nc1ncnc2nc[nH]c12` [Adenine]: “Decrease”.

Another data set in a line: LC/MS of blood plasma sample: time from blood collection to cooling of blood (Table E). Format: physicochemical, human. More on the design: key to Rate of increase or decrease / Rate of increase or decrease (first value, increase): detection intensity relative to ≤1 min to cooling = 1. The following applies: detection intensity relative to 1 at 1 minute or less, blood collection to cooling 5 minutes.
On to `N[C@@H](CC(=O)O)C(=O)O` [Aspartic acid], for which the “Rate of increase or decrease” value came to 1.93.
Consider `N[C@@H](CS)C(=O)O` [Cysteine], for which the “Rate of increase or decrease” value is reported as 1.67.
`Nc1ncnc2nc[nH]c12` [Adenine]: the “Rate of increase or decrease” value came out at 1.31.

Still in this data set, the particulars now being: detection intensity, blood collection to cooling 5 minutes or more vs 1 minute or less.
Regarding `N[C@@H](CC(=O)O)C(=O)O` [Aspartic acid], the Increase or decrease result is listed as “Increase”.
Regarding `NCCc1c[nH]c2ccc(O)cc12` [Serotonin], the Increase or decrease result was “Different from individual”.
On the same count and under the same terms, next, `N[C@@H](CS)C(=O)O` [Cysteine]: “Increase”; `Nc1ncnc2nc[nH]c12` [Adenine]: “Increase”.

Still in this data set, the particulars now being: different from individual to individual, individuals with decrease, relative to 1 at 1 minute or less, collection to cooling 5 minutes.
`NCCc1c[nH]c2ccc(O)cc12` [Serotonin]: the “Rate of increase or decrease (second value, decrease)” value came to 0.63.

Staying with this data set, now noted: different from individual to individual, individuals with increase, relative to 1 at 1 minute or less, collection to cooling 5 minutes.
Take `NCCc1c[nH]c2ccc(O)cc12` [Serotonin]: the “Rate of increase or decrease (first value, increase)” value stood at 1.62.

A further data set in a line: LC/MS of blood plasma sample: number of times of freezing and thawing (Table F). The note with it: detection intensity relative to 1 at 2 times, freezing and thawing 4 times. It is filed as physicochemical, human. Put shortly:
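Human blood from a healthy subject drawn into EDTA tubes, cooled to 4° C within 1 min or after ≥5 min, centrifuged at 4° C, 3000 rpm, 15 min. Plasma frozen, then freeze-thawed 2, 4, 6 or 10 times and analysed by LC/MS (ESI, MRM). Intensities expressed relative to 2 freeze-thaw cycles set as 1.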
On to `N[C@@H](CS)C(=O)O` [Cysteine], for which the “Rate of increase or decrease” value is given as 1.99.
Consider `Nc1ncnc2nc[nH]c12` [Adenine], for which the “Rate of increase or decrease” value worked out at 1.37.

Still in this data set, the particulars now being: detection intensity relative to 1 at 2 times, freezing and thawing 10 times.
Take `N[C@@H](CC(=O)O)C(=O)O` [Aspartic acid]: the “Rate of increase or decrease” value amounted to 1.76.

Staying with this data set, now noted: detection intensity, freezing and thawing 4 times vs 2 times.
With `N[C@@H](CS)C(=O)O` [Cysteine], the Increase or decrease entry was “Increase”.
On the same count and under the same terms, next, `Nc1ncnc2nc[nH]c12` [Adenine]: “Increase”.

The data set is the same for the next values; noted with them: detection intensity, freezing and thawing 6 times vs 2 times.
As to `NCCc1c[nH]c2ccc(O)cc12` [Serotonin], the Increase or decrease result was “Different from individual”.

The same data set, now with this note: detection intensity, freezing and thawing 10 times vs 2 times.
Take `N[C@@H](CC(=O)O)C(=O)O` [Aspartic acid]: the Increase or decrease result is listed as “Increase”.

The same data set, now with this note: different from individual to individual, individuals with decrease, relative to 1 at 2 times, freezing and thawing 6 times.
As to `NCCc1c[nH]c2ccc(O)cc12` [Serotonin], the “Rate of increase or decrease (second value, decrease)” value is listed as 0.68.

The data set is the same for the next values; noted with them: different from individual to individual, individuals with increase, relative to 1 at 2 times, freezing and thawing 6 times.
For the compound `NCCc1c[nH]c2ccc(O)cc12` [Serotonin], the “Rate of increase or decrease (first value, increase)” value was determined as 1.57.

Another data set can be described thus: LC/MS of serum sample: time from blood collection to centrifugation (Table J). It is filed as physicochemical, human. The following applies: after 4 hours from blood collection to centrifugation; detection intensity relative to 1 at 15 minutes. In short, it runs like this:
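Serum from blood centrifuged at room temperature, 3500 rpm, 5 min, then frozen; analysed by LC/MS on a Discovery HS F5-3 column at 40 °C. Mobile phase: 0.1% formic acid in water/acetonitrile, 0.25 mL/min, electrospray MRM. Values are intensity relative to a 15 min collection-to-centrifugation time.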
For the compound `N[C@@H](CC(=O)O)C(=O)O` [Aspartic acid], the “Rate of increase or decrease” value is 2.10.

Staying with this data set, now noted: after 6 hours from blood collection to centrifugation; detection intensity relative to 1 at 15 minutes.
Consider `N[C@@H](CS)C(=O)O` [Cysteine], for which the “Rate of increase or decrease” value was determined as 1.39.

The data set is the same for the next values; noted with them: serum sample, LC/MS; detection intensity vs 15 minutes from blood collection to centrifugation.
In the case of `N[C@@H](CC(=O)O)C(=O)O` [Aspartic acid], the Increase or decrease entry is reported as “Increase”.
Same read-out and setting: next, `N[C@@H](CS)C(=O)O` [Cysteine]: “Increase”.

Still in this data set, the particulars now being: serum sample, LC/MS; time from blood collection to centrifugation; detection intensity changed by 30% or more vs 15 minutes.
Regarding `N[C@@H](CC(=O)O)C(=O)O` [Aspartic acid], the “Time when compound is affected” value is given as “After 4 hours”.
With `N[C@@H](CS)C(=O)O` [Cysteine], the “Time when compound is affected” value is given as “After 6 hours”.

A short description of another data set: LC/MS of serum sample: time from centrifugation to isolation (Table K). Format: physicochemical, human. More on the design: key to Rate of increase or decrease: detection intensity relative to the 30-minute value set as 1. The following applies: after 1 hour from centrifugation to isolation; detection intensity relative to 1 at 30 minutes. In short, it runs like this: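 Serum left at room temperature 30 min, 1 h or 6 h between centrifugation (3500 rpm, 5 min, room temperature) and isolation, then frozen and analysed by LC/MS (Discovery HS F5-3 column, 40° C., 0.1% formic acid water/acetonitrile, electrospray, MRM). Values are detection intensity relative to the 30-min condition set to 1.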
In the case of `NCCc1c[nH]c2ccc(O)cc12` [Serotonin], the “Rate of increase or decrease” value is given as 0.52.
Still for that read-out and setting: in the case of `Nc1ncnc2nc[nH]c12` [Adenine] it was 0.39.

The data set is the same for the next values; noted with them: after 6 hours from centrifugation to isolation; detection intensity relative to 1 at 30 minutes.
As for `N[C@@H](CC(=O)O)C(=O)O` [Aspartic acid], the “Rate of increase or decrease” value is 2.40.
The same measure, in the same setting: next, `N[C@@H](CS)C(=O)O` [Cysteine]: 0.61.

Staying with this data set, now noted: serum sample, LC/MS; detection intensity vs 30 minutes from centrifugation to isolation.
As for `N[C@@H](CC(=O)O)C(=O)O` [Aspartic acid], the Increase or decrease result is listed as “Increase”.
Take `NCCc1c[nH]c2ccc(O)cc12` [Serotonin]: the Increase or decrease result is on record as “Decrease”.
Take `N[C@@H](CS)C(=O)O` [Cysteine]: the Increase or decrease result is given as “Decrease”.
As to `Nc1ncnc2nc[nH]c12` [Adenine], the Increase or decrease entry is on record as “Decrease”.

The data set is the same for the next values; noted with them: serum sample, LC/MS; time from centrifugation to isolation; detection intensity changed by 30% or more vs 30 minutes.
Take `N[C@@H](CC(=O)O)C(=O)O` [Aspartic acid]: the “Time when compound is affected” value is given as “After 6 hours”.
Consider `NCCc1c[nH]c2ccc(O)cc12` [Serotonin], for which the “Time when compound is affected” value is reported as “After 1 hour hours”.
Turning to `N[C@@H](CS)C(=O)O` [Cysteine], the “Time when compound is affected” value is “After 6 hours”.
As to `Nc1ncnc2nc[nH]c12` [Adenine], the “Time when compound is affected” value was “After 1 hour hours”.

A short description of another data set: LC/MS of serum sample: number of times of freezing and thawing (Table M). It is filed as physicochemical, human. Also on record: key to Rate of increase or decrease: detection intensity relative to 1 at 2 freeze-thaw cycles. The note with it: 4 times of freezing and thawing; detection intensity relative to 1 at 2 times. In short, it runs like this: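 Serum was isolated at room temperature after centrifugation at room temperature, 3500 rpm, 5 minutes, then frozen and freeze-thawed 2, 4, 6 or 10 times. LC/MS used a Discovery HS F5-3 column at 40° C with formic acid water/acetonitrile, electrospray MRM. Intensity is relative to 2 freeze-thaw cycles.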
As to `N[C@@H](CS)C(=O)O` [Cysteine], the “Rate of increase or decrease” value came to 1.37.
Still for that read-out and setting: in the case of `Nc1ncnc2nc[nH]c12` [Adenine] it was 0.57.

The data set is the same for the next values; noted with them: 10 times of freezing and thawing; detection intensity relative to 1 at 2 times.
`N[C@@H](CC(=O)O)C(=O)O` [Aspartic acid]: the “Rate of increase or decrease” value is given as 0.53.
Still for that read-out and setting: in the case of `NCCc1c[nH]c2ccc(O)cc12` [Serotonin] it was 0.65.

The data set is the same for the next values; noted with them: serum sample, LC/MS; detection intensity changed by 30% or more vs 2 times of freezing and thawing.
On to `N[C@@H](CC(=O)O)C(=O)O` [Aspartic acid], for which the “Number of times when compound is affected” value was 10 times.
The same measure, in the same setting: next, `NCCc1c[nH]c2ccc(O)cc12` [Serotonin]: 10 times; `N[C@@H](CS)C(=O)O` [Cysteine]: 4 times; `Nc1ncnc2nc[nH]c12` [Adenine]: 4 times.

Still in this data set, the particulars now being: serum sample, LC/MS; detection intensity vs 2 times of freezing and thawing.
As for `N[C@@H](CC(=O)O)C(=O)O` [Aspartic acid], the Increase or decrease entry is “Decrease”.
Same read-out and setting: in the case of `NCCc1c[nH]c2ccc(O)cc12` [Serotonin] it was “Decrease”; in that of `N[C@@H](CS)C(=O)O` [Cysteine], “Increase”; in that of `Nc1ncnc2nc[nH]c12` [Adenine], “Decrease”.
